Results from ChEMBL document CHEMBL3430912, “GSK Tres Cantos Anti-Kinetoplastid Screening (TCAKS) Data”.
pIC50: −log10 of the molar value.

Key:
[1] = molecular target: Sterol 14-alpha demethylase (Trypanosoma cruzi (strain CL Brener), UniProt Q7Z1V1); assay: GSK_TCAKS: pIC50 CYP51 from Trypanosoma cruzi.; assay type: functional
[2] = GSK_TCAKS: pIC50 HepG2 human cell line viability assay using luminiscence. […] Seeding density was checked to ensure that new mono-layers were not more than 50% confluent at the time of harvesting. Cell suspension was added to 500 mL of the same medium at a final density of 1.2 * 10^5 cells/mL. This cell suspension was dispensed (25 uL, 3000 cells per well) into 384-well clear-bottom plates using a Multidrop Combi dispenser. Prior to addition of the cell suspension, the screening compounds (250 nL) were pre-dispensed into the plates with an Echo liquid handler. Plates were incubated for 48 h at 37C, 5% CO2. After incubation, plates equilibrated at room temperature for 30 min before proceeding to develop the luminescent signal. The signal developer, CellTiter-Glo Reagent, was allowed to equilibrate at room temperature for 30 min and added to the plates (25uL per well) using a Multidrop Combi dispenser. Plates were left for 10 min at room temperature for stabilization and then read using a ViewLux.; assay type: toxicity, cell-based
[3] = system: Leishmania donovani; assay: (§1) GSK_TCAKS: pIC50 Leishmania donovani Imaging: Infected Macrophages. Assay plates (384-well) were prepared by adding 250nL of compound to each well. For single shot assay, the final compound concentration was 5 uM. […] Automated image analysis was performed with a script developed on Acapella High Content Imaging and Analysis Software (PerkinElmer). Output: Percent of infected macrophage cells were reported for each well.; assay type: functional, organism-based, Homo sapiens; details: THP-1
[4] = system: Trypanosoma cruzi; assay: (§2) GSK_TCAKS: pIC50 Trypanosoma cruzi Imaging: Infected Cells. […] Cells were then washed once with PBS before infection. T. cruzi trypomastigotes, collected at days 5 to 8 after infection from LLC-MK2 parasite infected cultures, were allowed to swim out for 4h at 37C from a centrifuged pellet (2,500 rpm/10 min/room temperature). Trypomastigotes were then collected and counted in a CASY Cell Counter. Trypomastigotes, in supplemented DMEM, were added to H9c2 cultures in a multiplicity of infection of 1 and incubated for 18 h. Cells were washed once with PBS before incubation of the infected H9c2 monolayer with trypsin (Life-Technologies) to detach cells from the flask. Cells were counted in a CASY Cell Counter using a 150 um capillary and their density set at 5 * 10^4 cells per mL in supplemented assay DMEM. Infected H9c2 were dispensed into 384-well poly-lysine coated assay plates at 50uL per well using a Multidrop Combi dispenser. After seeding them, the plates were incubated at 37C, 5% CO2 for 72h. Cultures were then fixed and stained by addition of 50 uL of a solution containing 8% formaldehyde and 4 uM DRAQ5 DNA dye (BioStatus, UK) per well. […] Five images were collected per well for reliable statistical analysis. Automated image analysis was performed with a script developed on Acapella High Content Imaging and Analysis Software (PerkinElmer). Output: percentage of infected cells per well as a second infection marker.; assay type: functional, organism-based, Rattus norvegicus; details: H9c2, 4 h
[5] = system: Leishmania donovani; assay: as §1, with “THP-1 Host” for “Infected”, “THP-1 cell count” for “Percent of infected macrophage cells”; assay type: functional, organism-based, Homo sapiens
[6] = system: Trypanosoma cruzi; assay: as §2, with “H2C9” for “Trypanosoma cruzi”, “H9c2 Host Cardiomyocytes.” for “Infected Cells.”, “Number” for “percentage”, “H9c2 Host Cardiomyocytes nuclei to determine drug-related cytotoxicity.” for “infected cells per well as a second infection marker.”; assay type: functional, organism-based, Rattus norvegicus; details: H9c2, 4 h
[7] = system: Trypanosoma cruzi; assay: GSK_TCAKS: pIC50 Trypanosoma cruzi Imaging: Amastigotes/Cell. […] Cells were then washed once with PBS before infection. T. cruzi trypomastigotes, collected at days 5 to 8 after infection from LLC-MK2 parasite infected cultures, were allowed to swim out for 4h at 37C from a centrifuged pellet (2,500 rpm/10 min/room temperature). Trypomastigotes were then collected and counted in a CASY Cell Counter. Trypomastigotes, in supplemented DMEM, were added to H9c2 cultures in a multiplicity of infection of 1 and incubated for 18 h. Cells were washed once with PBS before incubation of the infected H9c2 monolayer with trypsin (Life-Technologies) to detach cells from the flask. Cells were counted in a CASY Cell Counter using a 150 um capillary and their density set at 5 * 10^4 cells per mL in supplemented assay DMEM. Infected H9c2 were dispensed into 384-well poly-lysine coated assay plates at 50uL per well using a Multidrop Combi dispenser. After seeding them, the plates were incubated at 37C, 5% CO2 for 72h. Cultures were then fixed and stained by addition of 50 uL of a solution containing 8% formaldehyde and 4 uM DRAQ5 DNA dye (BioStatus, UK) per well. […] Five images were collected per well for reliable statistical analysis. Automated image analysis was performed with a script developed on Acapella High Content Imaging and Analysis Software (PerkinElmer). Output: number of amastigotes per cell as infection level measurement.; assay type: functional, organism-based, Rattus norvegicus; details: H9c2, 4 h
[8] = system: Trypanosoma brucei brucei; assay: GSK_TCAKS: pIC50 Trypanosoma brucei viability assay using fluorescence intensity. Assay plates (1536-well) were prepared by dispensing 25nL of compound solution per well using an Echo acoustic dispenser (Labcyte).; assay type: functional, organism-based; details: Lister 427, 2 h
[9] = system: Leishmania donovani; assay: GSK_TCAKS: pIC50 Leishmania donovani viability assay using fluorescence intensity. Assay plates (1536-well) were prepared by adding 30nL per well of compound. For single shot assay, the final compound concentration was 5uM. […] Briefly, eGFP LdBOB axenic amastigotes were harvested, fixed and counted in a CASY cell counter (Roche-Applied Science). A final concentration of 1.5 * 10^5 cells per well were prepared in amastigote media containing 500 U/mL penicillin/streptomycin (Invitrogen) and 6uL was dispensed to each experimental well using a Multidrop Combi dispenser (Thermo Scientific). 6uL of assay media was dispensed to control columns used as reference for 100% compound response. Following incubation for 72 h at 37C, 5% CO2, 2 uL of resazurin was added to each well at a final concentration of 0.5 mM in phosphate buffered saline (PBS) with IGEPAL (Sigma-Aldrich), 0.05% (v/v).; assay type: functional, organism-based
[10] = system: Trypanosoma brucei brucei; assay: GSK_TCAKS: pIC50 Trypanosoma brucei viability assay using luminiscence. Assay plates (1536-well) were prepared. T. brucei cultures were harvested and counted in a CASY cell counter. A parasite suspension was prepared at a final concentration of 5 * 10^4 cells/mL in complete HMI9 medium and 6uL was dispensed to all wells containing compounds using a Multidrop Combi dispenser. 6uL of HMI9 media with 0.4% DMSO were dispensed to control columns. Plates were incubated for 24 h at 37C, 5% CO2 then tempered for 10 min at room temperature. ATP content was quantified by adding 4 uL of CellTiter-Glo Reagent (Promega) according to the manufacturer's instructions. Luminescence was measured using a ViewLux.; assay type: functional, organism-based; details: Lister 427, CASY
[11] = system: Trypanosoma cruzi; assay: GSK_TCAKS: pIC50 Trypanosoma cruzi viability assay using beta-GAL activity. This assay was run at single shot at 5uM compound concentration per well. The biological reagents consisted of NIH-3T3 host cells and trypomastigotes parasitic cells; both cell types were set to a 3.3 * 10^5 cells/mL dilution in assay DMEM by means of a CASY cell counter device using a 60um capillary. 6 uL of the mixture were dispensed per well (about 1 * 10^3 host-cells and 1 * 10^3 parasites) with a Multidrop Combi dispenser. […] In all wells, the percentage of DMSO never exceeded 0.5%. Plates incubated for four days at 37C, 5% CO2. The substrate used for the assay fluorescence intensity (FLINT) readout was resorufin-beta-D-galactopiranoside (Sigma-Aldrich) at 5uM per well. It was diluted in PBS supplemented with the soft detergent Igepal (Fluka).; assay type: functional, organism-based, Mus musculus; details: Tulahuen, NIH3T3
[12] = system: Leishmania donovani; assay: as §1, with “Amastigotes/Macrophages.” for “Infected Macrophages.”, “Average number” for “Percent”, “amastigotes per” for “infected”, “cell” for “cells”; assay type: functional, organism-based, Homo sapiens; details: THP-1
[13] = system: NIH3T3; assay: GSK_TCAKS: pIC50 NIH 3T3 cell line viability assay using luminiscence. Tissue culture surface treated assay plates (1536-well) were used. […] The 100% cells survival control was determined exposing the host-cells to a 0.5% DMSO concentration, whereas the 100% toxicity control was achieved by seeding the cells in presence of Amphotericin B at 50uM. Plates were incubated for four days at 37C, 5% CO2. The assay readout was developed by addition of 5uL of CellTiter-Glo Reagent following the manufacturer's instructions. Luminiscence was measured using a ViewLux.; assay type: functional, cell-based; details: Mus musculus, NIH3T3, 96 h

Sequence of Sterol 14-alpha demethylase (Q7Z1V1 whole entry): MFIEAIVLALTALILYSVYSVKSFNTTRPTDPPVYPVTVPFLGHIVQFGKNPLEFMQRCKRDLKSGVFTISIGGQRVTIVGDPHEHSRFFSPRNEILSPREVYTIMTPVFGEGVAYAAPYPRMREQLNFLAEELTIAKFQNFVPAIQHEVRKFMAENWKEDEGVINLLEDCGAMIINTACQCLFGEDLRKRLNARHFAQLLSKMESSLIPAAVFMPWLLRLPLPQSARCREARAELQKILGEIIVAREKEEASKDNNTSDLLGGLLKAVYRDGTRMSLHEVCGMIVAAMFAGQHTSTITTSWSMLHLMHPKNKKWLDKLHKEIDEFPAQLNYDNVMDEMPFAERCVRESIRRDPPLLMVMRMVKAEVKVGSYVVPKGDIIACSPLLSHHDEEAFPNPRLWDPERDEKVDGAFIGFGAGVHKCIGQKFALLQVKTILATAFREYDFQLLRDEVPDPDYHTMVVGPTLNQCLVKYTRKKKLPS

Row | Structure (SMILES) | pIC50 [1] | IC50 at 48 h [2] [µM] | pIC50 [3] | pIC50 [4] | pIC50 [5] | pIC50 [6] | pIC50 [7] | pIC50 [8] | pIC50 [9] | pIC50 [10] | pIC50 [11] | pIC50 [12] | pIC50 [13]
1 | CCCn1c(NC(=O)Cc2ccc(Cl)cc2)nc2ccccc21 | < 4.00 | > 100 | 5.30 | 5.70 | < 4.30 | < 4.30 | 5.90 | 5.70 | 4.40 | 5.50 | 6.20 | 5.50 | < 4.30
2 | O=C(Nc1nc(-c2ccc(S(=O)(=O)N3CCOCC3)cc2)cs1)c1ccc([N+](=O)[O-])cc1 | < 4.00 | > 100 | < 4.30 | 5.80 | 5.40 | < 4.30 | 6.30 | 5.40 | < 4.30 | 5.00 | 6.00 | 5.60 | 4.60
3 | Cc1ccc2sc(NC(=O)Cn3cnc([N+](=O)[O-])n3)nc2c1 | < 4.00 | > 100 | < 4.30 | 5.40 | < 4.30 | < 4.30 | 6.30 | 4.60 | < 4.30 | < 4.40 | 5.90 | < 4.30 | 4.30
4 | CCC(=O)Nc1ccc(C(=O)Nc2ccccc2-c2ccccc2)cc1 | < 4.00 | > 100 | 4.70 | 6.30 | 4.80 | < 4.30 | 6.60 | 4.70 | 5.00 | 4.60 | 6.30 | 4.60 | < 4.30
5 | CCN(CC)S(=O)(=O)c1ccc(Cn2nc(C(=O)Nc3ccncn3)c3ccccc32)cc1 | 6.80 | > 100 | < 4.30 | 6.40 | < 4.30 | 4.60 | 6.40 | 4.50 | < 4.30 | < 4.40 | 6.50 | < 4.30 | 4.40
6 | Cc1cccnc1CN1CCN(CCCOc2ccc(-c3ccc(C(N)=O)cc3)cc2)CC1 | < 4.00 | > 100 | 4.50 | 4.70 | 4.90 | < 4.30 | 6.40 | 5.00 | < 4.30 | < 4.40 | 6.20 | 5.00 | 5.20
7 | CC(C(=O)Nc1ccccc1F)N(C)CC(=O)Nc1cccc2ccccc12 (centres undefined) | 4.80 | > 100 | < 4.30 | 6.30 | < 4.30 | < 4.30 | 6.50 | 4.60 | 4.30 | < 4.40 | 6.40 | < 4.30 | 4.90
8 | COc1ccc(C(C)N(C)c2ncc3c(N)nc(N)nc3n2)cc1F (centres undefined) | < 4.00 | > 100 | 4.80 | 6.70 | < 4.30 | 4.60 | 7.20 | 4.90 | 5.40 | 5.30 | 7.10 | 4.90 | 4.40
